Results: ChEMBL document CHEMBL4811316, “Larvicidal activity and in silico studies of cinnamic acid derivatives against Aedes aegypti (Diptera: Culicidae)” (Bioorg Med Chem, 2021)
≈ marks a conversion by molar mass, not a printed value.

Tests used:
[1] = Larvicidal activity against Aedes aegypti assessed as mortality at 45 ug/ml measured after 24 hrs relative to control; assay type: ADME; details: at 45 µg/mL
[2] = Larvicidal activity against Aedes aegypti assessed as mortality at 100 ug/ml measured after 24 hrs relative to control; assay type: ADME; details: at 100 µg/mL
[3] = Larvicidal activity against Aedes aegypti 4th instar larvae measured after 48 hrs; assay type: ADME
[4] = Retention time of the compound; assay type: physicochemical
[5] = Drug recovery in Aedes aegypti larval extract by HPLC analysis; assay type: ADME; details: 24 h
[6] = Drug recovery in Aedes aegypti supernatant measured after 24 hrs by HPLC analysis; assay type: ADME
[7] = Toxicity in Aedes aegypti assessed as rigid and elongated exoskeleton at 50 ug/ml; details: dose 50 µg/ml
[8] = Toxicity in Aedes aegypti assessed as reduction in body mass at 50 ug/ml; details: dose 50 µg/ml
[9] = Toxicity in Aedes aegypti assessed as appearance of dark spots in thorax region at 50 ug/ml; details: dose 50 µg/ml
[10] = Toxicity in Aedes aegypti assessed as appearance of dark spots in intestine region at 50 ug/ml; assay type: tissue-based; details: dose 50 µg/ml
[11] = Toxicity in Aedes aegypti assessed as appearance of dark spots in siphon region at 50 ug/ml; details: dose 50 µg/ml
[12] = Toxicity in Aedes aegypti assessed as abdomen curvature at 50 ug/ml; details: dose 50 µg/ml
[13] = Toxicity in Aedes aegypti assessed as modifications in anal papillae at 50 ug/ml; details: dose 50 µg/ml
[14] = Toxicity in Aedes aegypti assessed as translucent in anal papillae at 50 ug/ml; details: dose 50 µg/ml

| SMILES | mortality [1] [%] | mortality [2] [%] | LC10 [3] [µg/mL] | LC50 [3] [µg/mL] | LC90 [3] [µg/mL] | further results |
| --- | --- | --- | --- | --- | --- | --- |
| O=C(O)/C=C/c1ccc(C(F)(F)F)cc1 | 0 | 56.7 | 87.7 (≈ 406 µM) | 97.6 (≈ 452 µM) | 108.6 (≈ 502 µM) |  |
| O=C(O)/C=C/c1ccc(Cl)cc1 | 95 | 100 | 16.2 (≈ 88.7 µM) | 26 (≈ 142 µM) | 41.8 (≈ 229 µM) | Retention_time [4]: 3.32 min; Drug recovery [5]: 2.7143 µg/mL; Drug recovery [6]: 3.8191 µg/mL |
| CCOC(=O)/C=C/c1ccc([N+](=O)[O-])cc1 | 98.3 |  | 21.3 (≈ 96.3 µM) | 35.7 (≈ 161 µM) | 60 (≈ 271 µM) |  |
| CCOC(=O)/C=C/c1ccc(N(C)C)cc1 |  | 6.7 |  |  |  |  |
| CCOC(=O)/C=C/c1ccc(C(F)(F)F)cc1 | 98.3 |  | 11.1 (≈ 45.5 µM) | 21.6 (≈ 88.4 µM) | 42.2 (≈ 173 µM) |  |
| CCOC(=O)/C=C/c1ccc(C#N)cc1 | 8.3 |  |  |  |  |  |
| CCOC(=O)/C=C/c1ccc(OC(F)(F)F)cc1 | 93.3 |  | 19.6 (≈ 75.3 µM) | 31.3 (≈ 120 µM) | 50 (≈ 192 µM) |  |
| CCOC(=O)/C=C/C=C/c1ccccc1 | 93.3 |  | 10 (≈ 49.4 µM) | 19.7 (≈ 97.4 µM) | 38.8 (≈ 192 µM) |  |
| O=C(O)/C=C/c1ccc(OC(F)(F)F)cc1 |  | 40 |  |  |  |  |
| CCOC(=O)/C=C/c1ccc(C(C)(C)C)cc1 | 40 |  |  |  |  |  |
| CCOC(=O)/C=C/c1ccc(F)cc1 | 83.3 |  | 24 (≈ 124 µM) | 32.2 (≈ 166 µM) | 43.2 (≈ 222 µM) |  |
| CCOC(=O)/C=C/c1ccc(Br)cc1 | 100 |  | 18.9 (≈ 74.1 µM) | 25.1 (≈ 98.4 µM) | 33.3 (≈ 131 µM) |  |
| O=C(O)/C=C/c1ccc(Br)cc1 | 36.7 | 93.3 | 31.7 (≈ 140 µM) | 54.4 (≈ 240 µM) | 93.2 (≈ 410 µM) |  |
| O=C(O)/C=C/c1ccc([N+](=O)[O-])cc1 | 86.7 | 96.7 | 29 (≈ 150 µM) | 37.1 (≈ 192 µM) | 47.5 (≈ 246 µM) |  |
| O=C(O)/C=C/c1ccc(F)cc1 |  | 0 |  |  |  |  |
| CCOC(=O)/C=C/c1ccc(OC)cc1 [4-METHOXY ETHYL CINNAMATE] | 80 |  | 18.2 (≈ 88.2 µM) | 26.9 (≈ 130 µM) | 39.7 (≈ 192 µM) |  |
| COc1ccc(/C=C/C(=O)O)cc1 [4-METHOXYCINNAMIC ACID] | 0 |  |  |  |  |  |
| O=C(O)/C=C/c1ccccc1 [CINNAMIC ACID] | 0 | 28.3 |  |  |  |  |
| CCOC(=O)/C=C/c1ccc(Cl)cc1Cl [ETHYL 3-(2,4-DICHLOROPHENYL)ACRYLATE] | 86.7 |  | 10.2 (≈ 41.6 µM) | 23.6 (≈ 96.3 µM) | 54.8 (≈ 224 µM) |  |
| CCOC(=O)/C=C/c1ccc(Cl)cc1 [ETHYL 3-(4-CHLOROPHENYL)ACRYLATE] | 100 |  | 3.5 (≈ 16.6 µM) | 8.3 (≈ 39.4 µM) | 19.7 (≈ 93.5 µM) | Retention_time [4]: 3.61 min; Drug recovery [5]: 8.2531 µg/mL; Drug recovery [6]: 10.8746 µg/mL; Activity [7]: Toxic; Activity [8]: Toxic; Activity [9]: Toxic; Activity [10]: Toxic; Activity [11]: Toxic; Activity [12]: Toxic; Activity [13]: Toxic; Activity [14]: Toxic |
| CCOC(=O)/C=C/c1ccccc1 [ETHYL CINNAMATE] | 95 |  | 30.4 (≈ 173 µM) | 35.6 (≈ 202 µM) | 41.7 (≈ 237 µM) |  |
| CCOC(=O)/C=C/c1ccc(O)cc1 [ETHYL P-COUMARATE] | 0 |  |  |  |  |  |
| COP(=S)(OC)Oc1ccc(Sc2ccc(OP(=S)(OC)OC)cc2)cc1 [TEMEFOS] |  |  | 1.8 (≈ 3.86 µM) | 4.4 (≈ 9.43 µM) | 10.4 (≈ 22.3 µM) |  |
